Numbers after ± are expanded uncertainties.
Details: Liquid, vibrating tube

CCOCCOCCO [3,6-dioxa-1-octanol]
mass density [kg/m3]
Details | 100 kPa | 1000 kPa | 2500 kPa | 5000 kPa | 7500 kPa | 10000 kPa | 15000 kPa | 20000 kPa | 25000 kPa
283.15 K | 997.7 ± 0.5 | 998.2 ± 0.5 | 999.1 ± 0.5 | 1000.6 ± 0.5 | 1002 ± 0.5 | 1003.4 ± 0.5 | 1006.1 ± 0.5 | 1008.8 ± 0.5 | 1011.3 ± 0.5
293.15 K | 988.4 ± 0.5 | 988.9 ± 0.5 | 989.8 ± 0.5 | 991.3 ± 0.5 | 992.8 ± 0.5 | 994.3 ± 0.5 | 997.2 ± 0.5 | 999.9 ± 0.5 | 1002.6 ± 0.5
303.15 K | 979.5 ± 0.5 | 980.1 ± 0.5 | 981.1 ± 0.5 | 982.6 ± 0.5 | 984.2 ± 0.5 | 985.8 ± 0.5 | 988.8 ± 0.5 | 991.7 ± 0.5 | 994.6 ± 0.5
313.15 K | 970.6 ± 0.5 | 971.2 ± 0.5 | 972.2 ± 0.5 | 973.9 ± 0.5 | 975.5 ± 0.5 | 977.1 ± 0.5 | 980.3 ± 0.5 | 983.4 ± 0.5 | 986.3 ± 0.5
323.15 K | 961.5 ± 0.5 | 962.1 ± 0.5 | 963.2 ± 0.5 | 965 ± 0.5 | 966.8 ± 0.5 | 968.5 ± 0.5 | 971.9 ± 0.5 | 975.1 ± 0.5 | 978.2 ± 0.5
333.15 K | 952.4 ± 0.5 | 953.1 ± 0.5 | 954.3 ± 0.5 | 956.1 ± 0.5 | 958 ± 0.5 | 959.7 ± 0.5 | 963.2 ± 0.5 | 966.5 ± 0.5 | 969.8 ± 0.5
343.15 K | 943.4 ± 0.5 | 944.1 ± 0.5 | 945.3 ± 0.5 | 947.3 ± 0.5 | 949.2 ± 0.5 | 951.1 ± 0.5 | 954.8 ± 0.5 | 958.3 ± 0.5 | 961.6 ± 0.5
353.15 K | 934.1 ± 0.5 | 934.9 ± 0.5 | 936.1 ± 0.5 | 938.2 ± 0.5 | 940.2 ± 0.5 | 942.2 ± 0.5 | 946 ± 0.5 | 949.7 ± 0.5 | 953.2 ± 0.5

COCCOCCO [2-(2-methoxyethoxy)ethanol]
mass density [kg/m3]
Details | 100 kPa | 1000 kPa | 2500 kPa | 5000 kPa | 7500 kPa | 10000 kPa | 15000 kPa | 20000 kPa | 25000 kPa
283.15 K | 1028.5 ± 0.5 | 1029 ± 0.5 | 1029.8 ± 0.5 | 1031.2 ± 0.5 | 1032.5 ± 0.5 | 1033.9 ± 0.5 | 1036.4 ± 0.5 | 1039 ± 0.5 | 1041.4 ± 0.5
293.15 K | 1019.5 ± 0.5 | 1020 ± 0.5 | 1020.9 ± 0.5 | 1022.3 ± 0.5 | 1023.7 ± 0.5 | 1025.2 ± 0.5 | 1027.9 ± 0.5 | 1030.5 ± 0.5 | 1033.1 ± 0.5
303.15 K | 1010.8 ± 0.5 | 1011.3 ± 0.5 | 1012.2 ± 0.5 | 1013.6 ± 0.5 | 1015 ± 0.5 | 1016.4 ± 0.5 | 1019.3 ± 0.5 | 1022.1 ± 0.5 | 1024.8 ± 0.5
313.15 K | 1002 ± 0.5 | 1002.6 ± 0.5 | 1003.5 ± 0.5 | 1005.1 ± 0.5 | 1006.7 ± 0.5 | 1008.2 ± 0.5 | 1011.2 ± 0.5 | 1014.1 ± 0.5 | 1016.9 ± 0.5
323.15 K | 993.2 ± 0.5 | 993.9 ± 0.5 | 994.9 ± 0.5 | 996.6 ± 0.5 | 998.3 ± 0.5 | 1000 ± 0.5 | 1003.2 ± 0.5 | 1006.2 ± 0.5 | 1009.2 ± 0.5
333.15 K | 983.9 ± 0.5 | 984.6 ± 0.5 | 985.6 ± 0.5 | 987.4 ± 0.5 | 989.1 ± 0.5 | 990.8 ± 0.5 | 994.1 ± 0.5 | 997.2 ± 0.5 | 1000.2 ± 0.5
343.15 K | 975.2 ± 0.5 | 975.8 ± 0.5 | 977 ± 0.5 | 978.8 ± 0.5 | 980.6 ± 0.5 | 982.4 ± 0.5 | 985.9 ± 0.5 | 989.2 ± 0.5 | 992.4 ± 0.5
353.15 K | 965.7 ± 0.5 | 966.4 ± 0.5 | 967.6 ± 0.5 | 969.5 ± 0.5 | 971.4 ± 0.5 | 973.3 ± 0.5 | 976.9 ± 0.5 | 980.4 ± 0.5 | 983.7 ± 0.5

From the NIST ThermoML archive (doi:10.1021/je034218n)
